Reference: publication PMC3547856, “Naphthoquinone Derivatives Exert Their Antitrypanosomal Activity via a Multi-Target Mechanism” (PLoS Neglected Tropical Diseases, 2013)
Where “and” joins values, the source holds several entries; their conditions need not be identical. Equal entries are not always repeated. Entries after “also recorded” stand apart in the source; their conditions may differ. Where two headings read alike, the source gives them in different places. Each block holds one compound with its values, some of them ahead of it.

How the values were obtained:
[1] = test system: Trypanosoma; design: method as in earlier work; details: cited from earlier work
[2] = design: method as in earlier work; details: cited from earlier work
[3] = test system: Trypanosoma brucei rhodesiense; test: T. b. rhodesiense in vitro growth inhibition; format: cell-based; details: for IC50: Trypanosoma brucei, RHODESIENSE / STIB900, Figure 1, bloodstream form STIB 900 strain, read-out: IC50 against Trypanosoma brucei rhodesiense parasites
Procedure: The synthesized compounds were then tested against T. b. rhodesiense parasites as previously reported, and their activities are shown in Figure 1 along with that of B6.
T. b. rhodesiense in vitro growth inhibition activity of 1–3 (Fig. 1) was assessed using bloodstream form of STIB 900 strain, following the procedure reported in Orhan et al..

[4] = target: TbGK (Trypanosoma brucei brucei, UniProt Q9NJP9); test: T. b. brucei glycerol kinase enzyme-coupled spectrophotometric assay; format: biochemical; details: mean of three independent experiments; 25°C
Procedure: The expression construct has been obtained by subcloning the corresponding GK gene (isolated from T. b. brucei strain Lister 427) from the formerly designed pET15-TbGK plasmid into vector pET28 to create the final expression plasmid pET28-TbGK (unpublished data). TbGK was then expressed in E. coli BL21(DE3)-CodonPlus-RIL grown in 1 liter LB medium supplemented with kanamycin (50 µg/ml) and chloramphenicol (34 µg/ml) for 16 h at 37°C. Expression was induced by adding 1 mM isopropyl β-d-thiogalactanopyranoside (IPTG), and growth was continued for another 2 h at 37°C. […] TbGK was eluted using a 10 column volumes linear imidazole-gradient using buffer A and buffer B. Eluted fractions were analyzed by SDS-PAGE. […] After overnight incubation at 16°C, the digested protein was concentrated and desalted using a Superdex 75 column equilibrated with buffer A. Protein concentration was determined at 280 nm (extinction coefficient = 81650 M^−1 cm^−1). […]
The TbGK activity was measured using a modified version of a continuous enzyme-coupled spectrophotometric assay developed previously. […] The IC50 value of B6 was calculated as the mean of three independent experiments.

[5] = target: TbGAPDH (Trypanosoma brucei brucei, UniProt P22512); test: T. b. brucei glyceraldehyde-3-phosphate dehydrogenase enzyme-coupled spectrophotometric assay; format: biochemical; details: for IC50: 10 min pre-incubation
Procedure: The kinetics of the TbGAPDH reaction was monitored using a continuous enzyme-coupled spectrophotometric assay, as previously described. In brief, TbGAPDH activity was measured following the NADH oxidation at 340 nm, in a coupled assay with 3-phosphoglycerate kinase and using a Jasco V-550 spectrophotometer.
All measurements were performed at 25°C in 0.01 M triethanolamine, pH 7.6, 1.7 mM ATP, 1 mM EDTA, 100 mM KCl, 5 mM MgSO4, 1.7 mM NaHCO3, 25 µg 3-phosphoglycerate kinase. The IC50 values were determined in a final volume of 1 ml in the presence of 120 ng TbGAPDH and 5.6 mM 3-phosphoglycerate (3-PGA), while varying the B6 concentration after a pre-incubation of enzyme plus inhibitor for 10 min. The reaction was started by the addition of 0.2 mM NADH. Each point of the curve was measured in triplicates and the value for IC50 was estimated from graphically plotted dose-response curves.
The type of inhibition was determined with respect to NADH and 3-PGA in consideration of Michaelis-Menten steady-state conditions. To investigate the inhibition mechanism with respect to NADH, TbGAPDH was incubated for 10 min at room temperature with different inhibitor concentrations (0–15 µM) in a total volume of 1 ml. The reaction was initiated by the addition of 5.6 mM 3-PGA and NADH (ranging from 5 µM to 200 µM). The inhibition mechanism with respect to 3-PGA was determined in a similar way. To this end, TbGAPDH was incubated with varying inhibitor concentrations (10 nM–100 µM). The reaction was initiated by the addition of 0.2 mM NADH and 3-PGA (ranging from 50 µM to 5.6 mM). The α and Ki values were obtained from Dixon and secondary plots. The reported values represent the mean of two independent experiments.

[6] = test system: bloodstream-form T. b. brucei strain Lister 427; test: Growth inhibition (LILIT) of bloodstream-form T. b. brucei; format: cell-based; details: cultured bloodstream form
Procedure: (§1) We used bloodstream and procyclic forms of T. b. brucei strain Lister 427, cell lines 449 [34], constitutively expressing the E. coli tetracycline (Tet) repressor gene via the chromosomally integrated plasmid pHD449 that also confers phleomycin resistance. Bloodstream forms were cultured in HMI-9 medium containing 10% heat-inactivated foetal calf serum (Invitrogen) and 0.18 µg/ml phleomycin (Cayla) at 37°C under water-saturated air with 5% CO2. Procyclic trypanosomes were grown in SDM79 medium supplemented with 15% foetal calf serum and 0.5 µg/ml phleomycin at 28°C under water-saturated air with 5% CO2. The glucose-depleted SDM-80 medium, first employed by Lamour et al., was supplemented with 5 µg/ml hemin, 9% (v/v) dialyzed “glucose free” heat-inactivated foetal calf serum (Sigma) and 1% (v/v) of normal heat-inactivated foetal calf serum (Invitrogen).
(§2) The anti-trypanosomal activity tests were also performed on T. b. brucei according to the “Long Incubation Low Inoculation Test” (LILIT), [39] using cultured bloodstream and procyclic forms of T. b. brucei strain Lister 427, cell line 449 [34].

[7] = test system: procyclic T. b. brucei strain Lister 427; test: Growth inhibition (LILIT) of procyclic T. b. brucei with or without glucose; format: cell-based
Procedure: as §1, §2
Tests of growth inhibition by B6 were performed on procyclic trypanosomes cultured in medium containing glucose (SDM79 medium), resulting in glycolytic activity for the cells' main energy supply, or without glucose (SDM80 medium), where the proline is the main substrate for free energy production through mitochondrial metabolism. Under these latter conditions, the glycosomal GAPDH would still be needed for gluconeogenesis, to synthesize glucose 6-phosphate for production of glucoconjugates, but the gluconeogenic flux is assumed to be much lower than the glycolytic flux when glucose is present.

[8] = test system: bloodstream form T. b. brucei G6PDH RNAi cell line; test: Growth inhibition of bloodstream-form T. b. brucei G6PDH RNAi cell line; format: cell-based
Source text: To provide support for the notion that the trypanocidal effect of B6 could in part be attributed to the generation of toxic ROS, we made use of an available bloodstream form T. b. brucei cell line in which glucose-6-phosphate dehydrogenase (G6PDH) expression can be knocked down by RNA interference (RNAi). Previously, it has been shown that this cell line grows equally well as wild-type cells under normal (reducing) growth conditions, but it is highly susceptible to ROS when the G6PDH expression is partially knocked down, an effect attributed to decreased NADPH production.

[9] = test system: permeabilized T. b. brucei bloodstream-form cells; test: Oxygen consumption in permeabilized bloodstream-form cells (Clark electrode); format: cell-based
Procedure: Oxygen consumption was monitored in a thermostated vessel at 37°C with a Clark electrode (oxygraph). Measurements in permeabilized bloodstream-form T. brucei were done in buffer 1 (96.9 mM NaCl, 3.1 mM KCl, 5 mM MgCl2, 2 mM Na2HPO4, 90 mM Tris at pH 7.5). Batches of 2×10^7 cells were pelleted, washed in buffer 1 and incubated for 5′ on ice in 1 ml of buffer 1 containing 1 ng digitonin to permeabilize the cells. Subsequently the permeabilized cells were pelleted and washed twice with buffer 1 without digitonin after which the pellet was taken up in 1 ml buffer 1 and transferred to the oxygraph. Substrates and inhibitors were added as described in the text.
B6 and SHAM were dissolved in DMSO. The DMSO concentration used in these oxygen consumption measurements was less than 0.7%.
To determine whether B6 could exert its trypanocidal action also through this mechanism, respiration was monitored in permeabilized T. b. brucei bloodstream-form cells in the presence of B6 and/or SHAM (Fig. 7). SHAM is an inhibitor of TAO, which acts as the final electron acceptor in bloodstream form T. b. brucei.

[10] = test system: T. b. brucei bloodstream-form mitochondria; test: ROS (H2O2) production by mitochondrial fraction, H2DCFDA fluorescence; format: cell-based; details: 10 µM B6, in the presence of G3P
Procedure: Bloodstream- and procyclic-form T. b. brucei cells (strain Lister 427, cell line 449) were cultured up to the exponential growth phase and homogenates were obtained by grinding the washed parasite pellets with silicon-carbide abrasive grain (mesh 300) in disruption buffer containing 250 mM sucrose, 25 mM Tris-HCl and l mM EDTA, pH 7.8 (STE buffer). Differential centrifugation was performed as follows: the suspension was taken up in another 3 ml STE buffer and centrifuged at 30 g for 3 min. The supernatant, representing the cell homogenate, was centrifuged at 1,500 g for 10 min giving the nuclear fraction. The post-nuclear supernatant was then centrifuged at 5,000 g for 10 min giving the large-granular (mitochondria-enriched) fraction as pellet. This fraction was resuspended in 300 µl STE buffer.
The method used to measure H2O2 production in T. b. brucei mitochondria is based on the fluorogenic probe 2′,7′-dichlorodihydrofluorescein diacetate (H2DCFDA) which emits an intense green fluorescence only after deacetylation and subsequent oxidation. ROS production by the mitochondrial fraction of bloodstream form T. b. brucei was measured in a 96-well microtiter plate using a fluorescence plate reader (Victor Wallace multiplate reader).
In each well, 0.25 mg mitochondrial protein/ml and 5 µM H2DCFDA to a final volume of 0.2 ml with 10 mM Tris-HCl, 50 mM KCl, 1 mM EDTA, pH 7.5 were present. […]

[11] = test system: Trypanosoma brucei rhodesiense; design: method as in PMID 18353643; details: cited from earlier work
[12] = test system: mammalian cell lines; design: method as in PMID 18353643; details: ratio of ED50 values on mammalian cell lines and trypanosomes; cited from earlier work

Sequence of TbGAPDH (P22512 whole entry): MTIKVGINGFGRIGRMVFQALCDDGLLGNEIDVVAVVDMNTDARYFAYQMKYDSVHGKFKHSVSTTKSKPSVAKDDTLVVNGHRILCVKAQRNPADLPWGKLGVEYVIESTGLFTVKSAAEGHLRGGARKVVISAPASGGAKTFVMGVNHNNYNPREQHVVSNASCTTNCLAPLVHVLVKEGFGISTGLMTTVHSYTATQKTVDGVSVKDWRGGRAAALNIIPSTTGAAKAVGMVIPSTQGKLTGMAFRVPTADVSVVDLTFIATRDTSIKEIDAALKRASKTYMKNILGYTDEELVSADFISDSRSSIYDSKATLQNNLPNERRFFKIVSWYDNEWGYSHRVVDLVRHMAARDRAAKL
Sequence of TbGK (Q9NJP9 whole entry): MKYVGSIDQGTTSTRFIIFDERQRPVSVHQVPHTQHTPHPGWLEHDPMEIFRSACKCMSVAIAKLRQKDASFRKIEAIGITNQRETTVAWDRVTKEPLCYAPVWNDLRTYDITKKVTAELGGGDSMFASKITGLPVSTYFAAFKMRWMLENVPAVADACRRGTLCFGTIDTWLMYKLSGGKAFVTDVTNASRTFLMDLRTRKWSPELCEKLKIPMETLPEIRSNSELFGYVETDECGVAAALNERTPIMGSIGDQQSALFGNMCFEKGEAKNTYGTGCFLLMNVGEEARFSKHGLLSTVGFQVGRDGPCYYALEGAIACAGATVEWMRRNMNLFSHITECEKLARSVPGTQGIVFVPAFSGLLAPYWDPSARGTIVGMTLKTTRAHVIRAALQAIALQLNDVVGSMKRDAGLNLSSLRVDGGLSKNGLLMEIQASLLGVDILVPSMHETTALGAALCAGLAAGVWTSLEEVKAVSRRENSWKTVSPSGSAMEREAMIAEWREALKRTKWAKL

SMILES: CC(C)=CCC1=C(O)C(=O)c2ccccc2C1=O [lapachol]
- anti-trypanosomal profile [1]: marked anti-trypanosomal profile
- toxic effects in humans [2]: no serious toxic effects in humans

- IC50 [3]: 4.4 µM
SMILES: O=C1C(Oc2ccccc2)=CC(=O)c2c(O)cccc21 [Compound 2, 5-hydroxy-2-phenoxy-[1,4]naphthoquinone]

SMILES: O=C1C=C(Oc2ccccc2)C(=O)c2ccccc21 [B6, 2-phenoxy-1,4-naphthoquinone]
- IC50 [4]: 0.9 ± 0.3 µM
- IC50 ([5]; then 1:10 dilution of enzyme and inhibitor, read-out: IC50 TbGAPDH after dilution 1:10): 9.98 ± 3.53 µM
- IC50 ([5]; standard conditions, without dilution, read-out: IC50 TbGAPDH): 7.25 ± 1.62 µM
- Ki ([5]; variation of 3-PGA): 5 µM and 4.99 µM
- Ki ([5]; variation of NADH): 3.6 µM
- α value ([5]; with respect to 3-PGA): 0.4
- α value ([5]; with respect to NADH): 0.6
- type of inhibition of TbGAPDH ([5]; with respect to NADH and 3-PGA, double reciprocal plots): non-competitive inhibitor (mixed type)
- ED50 bloodstream-form T. b. brucei strain Lister 427 [6]: 24.8 µM
- fold more susceptible, procyclic versus bloodstream-form ([7]; glucose-grown cells, strain Lister 427): 100 fold
- ED50 procyclic trypanosomes ([7]; medium containing glucose (SDM79)): 0.25 ± 0.09 µM and 0.25 µM
- ED50 procyclic trypanosomes ([7]; without glucose (SDM80), proline metabolism): 0.67 ± 0.16 µM
- ED50 induced RNAi cell line ([8]; G6PDH expression knocked down by RNAi): 0.25 µM
- ED50 non-induced RNAi cell line ([8]; non-induced): 10.8 µM
- oxygen consumption rate ([9]; cells respiring on 10 mM G3P, absence and presence of SHAM): the oxygen consumption rate increased
- ROS production [10]: able to generate radicals in a significant way; also recorded: considerable production of ROS
- IC50 ([11]; Figure 1, lead B6, read-out: IC50 against Trypanosoma brucei rhodesiense parasites): 0.08 µM
- ED50 against Trypanosoma brucei rhodesiense ([11]; in vitro cultured parasites): 0.08 µM
- selectivity index [12]: 74

SMILES: O=C(NO)c1ccccc1O [SHAM, salicylhydroxamic acid, reference compound]
- respiration ([9]; 2 mM SHAM, 10 mM G3P as electron donor): inhibited respiration completely

- IC50 [3]: 0.85 µM
SMILES: O=C1C=C(Oc2ccccc2)C(=O)c2c(O)cccc21 [Compound 3, 8-hydroxy-2-phenoxy-[1,4]naphthoquinone]

- IC50 [3]: 0.57 µM
SMILES: Nc1ccc(OC2=CC(=O)c3ccccc3C2=O)cc1 [Compound 1, 2-(4-amino-phenoxy)-[1,4]naphthoquinone]
- times less active than B6 ([3]; anti-T. b. rhodesiense activity relative to B6): 7 times
